Test results: patent publication US12605453B2, “CP2C-targeting peptide-based anticancer agent” (Industry-University Cooperation Foundation Hanyang …, priority 2019, dated 2026)
*1 amine or outer side, *2 acyl side, *3 side chain or, on linkers, in order; H or OH if unused. Where a SMILES comes first, the peptide text is derived from it. Bridges are numbered along the chain shown (N, C = ends). Roman numbers before positions name the chains, in order. Side-chain parts run from the residue outwards. The star is where a group is joined. γGlu = O=C(O)[C@H](CCC(=O)[*:2])N[*:1]; Palmitoyl = CCCCCCCCCCCCCCCC(=O)*

Experiments:
[1] = system: liver cancer induced by DEN treatment; assay: Liver cancer mouse model induced by DEN treatment; format: in vivo; conditions: for efficacy: mice 15 weeks after DEN treatment
Description: In addition, […] (7 to 8 mice/group), such as a control group (mock) treated with only a vehicle, a sorafenib group (an approved drug for liver cancer treatment), and an ACP52CG-GFLGE (SEQ ID NO: 16) (ACP52CK) group. The drug was injected through the tail vein a total of 12 times at a concentration of 5 mg/kg at 3-day intervals.

[2] = ELISA for antibody formation in sera of injected rabbits (immunogenicity); conditions: rabbit, in vivo
Text: To verify this, immunogenicity of ACP52CG and ACP52CK was directly tested in the process of deriving the final new drug candidate. Since the final candidate material might be a C-16 palmitoyl acid-conjugated ACP52C peptide, which is not different with ACP52CG and ACP52CK in terms of chemical composition, it was decided to analyze whether antibodies were formed on ACP52CG and ACP52CK. […] Therefore, it was concluded that the final candidate material (ACP52CGK) would also not show immunogenicity in the human body (FIG. 21).

[3] = system: MDA-MB-231 (LM1) xenograft mice; format: in vivo; conditions: for anticancer effect: tail vein 5 times at 3-day intervals
Description: The anticancer effect of ACP52CGK was analyzed in MDA-MB-231 (LM1) xenograft mice in the same manner as in the Hep3B xenograft mouse model experiments.

[4] = system: various cancer cell lines; assay: In vitro anticancer effect of C16 fatty acid-binding peptides in various cancer cells; format: cell-based; conditions: for GI50 values compared with control (ACP52C): 48 hours after treatment; for cancer cell-specific cell death: compared with control ACP52C
Description: The anticancer effect of the CP2c-targeting peptide-fatty acid conjugate synthesized in Preparation Example 2 was analyzed in various cancer cells.

[5] = system: Hep3B xenograft mice; format: in vivo
Description: To analyze the anticancer efficacy of the CP2c target peptide-fatty acid conjugates synthesized in Preparation Example 2 in animal models, ACP52CG and ACP52CK were injected into the Hep3B xenograft mice via tail vein 5 times at 3-day intervals.
ACP52CGK was injected into the Hep3B xenograft mice via tail vein at 3 different concentrations (1.39, 2.77, or 5.54 mg/kg) 5 times at 3-day intervals. The tumor volume was measured at every three days after drug injection. The tumor and major tissues were excised from the mice sacrificed on the 24th day after the tumor cell injection. The tumor was weighed and fixed with 4% formaldehyde together with major organs. After making tissue slides through paraffin sections, hematoxylin/eosin staining was performed. The collected blood samples were subjected to basic CBC analysis using a Coulter LH 750 hematology analyzer. The acquired data were statistically processed using an Excel program.
ACP52CGK was injected into Hep3B xenograft mice via tail vein 5 times at intervals of 5 days at 3 different concentrations (1.39, 2.77, 5.54 mg/kg), and the anticancer effect was evaluated in the same manner as described above. […] As a result of a comprehensive analysis of all the results, 2.77 mg/kg was the optimal concentration.

[6] = In vivo half-life by live imaging of Cy5-labeled peptide fluorescence in the mouse body; conditions: whole body (mouse body, live imaging), intravenous
Description: To analyze the in vivo half-life of ACP52CGK, Cy5-labeled ACP52CGK was injected into the tail vein of the mouse, and then the fluorescence intensity remaining in the mouse body was measured over time by live imaging process.

[7] = system: normal cell line; assay: Cell growth analysis in normal cell line; format: cell-based
Text: FIGS. 10a to 10g illustrate cell growth analysis results dependent upon treatment with ACP52CGK (=γC16-ACP52 cm) in normal cell lines (BEAS2B and hMSC) and cancer cell lines (Hep3B, Hs746T, Caov-3, MDA-MB-231, U343, HCT116, PANC1, PC3, A549, and THP-1).

[8] = Repeated toxicity test of ACP52CGK, 28 days, female and male mice; format: in vivo, mouse; conditions: 100 mg/kg
Description: A repeated toxicity test for the in vivo administration of ACP52CGK was conducted using female and male mice. […] As a full-scale experiment, after intravenous infusion of ACP52CGK for 28 days at 3-day intervals into the solvent group and high-dose group (100 mg/Kg) of 6 males and females each, the weight change, drinking water intake, and main histological analysis of organs, organ weight, hematological tests and blood biochemical tests were analyzed.

[9] = system: cells primary cultured from PDX (patient derived xenograft) tumor tissue; assay: Efficacy in cells primary cultured from PDX tumor tissue; format: cell-based
[10] = system: caspase2; assay: Immunoblot of MDM2p90 and MDM2p60 after caspase2 inhibitor treatment; format: cell-based; conditions: lung cancer cells
Description: Meanwhile, when a caspase2 inhibitor (AC-VDVAD (SEQ ID NO: 11)-CHO) was treated to identify a phenomenon that occurs due to the high activity of caspase2 specifically in lung cancer cells, it was found by immunoblot that the protein amount of MDM2p90 increased, while the protein amount of MDM2p60 decreased according to the treatment with the Caspase2 inhibitor. Therefore, we concluded that the MDM2p60 form, which is overexpressed in lung cancer cells, is the result of cleavage of MDM2p90 by caspase2. […] As a result, efficacy was observed around GI50˜1 μM in the group treated with the combination of the caspase 2 inhibitor and ACP52C (FIGS. 34a to 34d, FIG. 35).

[11] = tail vein 5 times at 3-day intervals

CNC(=O)c1cc(Oc2ccc(NC(=O)Nc3ccc(Cl)c(C(F)(F)F)c3)cc2)ccn1 [sorafenib, reference compound]
anticancer effect compared to the control group ([1]; mice 22 weeks after DEN treatment, 5 mg/kg tail vein 12 times at 3-day intervals): significant anticancer effect (p=0.04)

CCCCCCCCCCCCCCCC(=O)NCC(=O)N[C@@H](Cc1ccccc1)C(=O)N[C@@H](CC(C)C)C(=O)NCC(=O)N[C@@H](CCC(=O)O)C(=O)NCCCC[C@H](NC(C)=O)C(=O)NCC(=O)NCC(=O)N[C@@H](CC(N)=O)C(=O)N[C@@H](Cc1ccc(O)cc1)C(=O)N1CCC[C@H]1C(=O)N[C@@H](CCC(N)=O)C(=O)N[C@@H](CCCNC(=N)N)C(=O)N1CCC[C@H]1C(=O)N[C@@H](CS)C(=O)N[C@@H](CCCNC(=N)N)C(=O)NCC(=O)N[C@@H](CC(=O)O)C(=O)N[C@@H](CCCCN)C(=O)NCC(=O)N1CCC[C@H]1C(=O)N[C@@H](CC(=O)O)C(=O)N[C@@H](CS)C(N)=O [ACP52CK] (I: Ac-KGGNYPQRPCRGDKGPDC-NH2 / II: Palmitoyl-GFLGE; amide I:1-II:C)
immune response of sera from rabbits injected with ACP52CG and ACP52CK three times (ELISA) [2]: did not induce immune responses
anticancer effect [3]: showed tumor regression efficacy, but the anticancer effect was not significant
GI50 values compared with control (ACP52C) [4]: like or more efficient than that of the control
cancer cell-specific cell death [4]: induced cancer cell-specific cell death similarly to the control group
anticancer efficacy [5, 11]: showed similar efficacy to sorafenib, but their efficacy was inferior to that of ACP52C
efficacy [1]: superior to another control, FQI1, but did not show any superior efficacy compared to ACP52C

CCCCCCCCCCCCCCCC(=O)N[C@@H](CCC(=O)NCCCC[C@H](NC(=O)CNC(=O)CNC(=O)[C@@H]1CCCN1C(=O)[C@H](CCCNC(=N)N)NC(=O)[C@H](CCC(N)=O)NC(=O)[C@@H]1CCCN1C(=O)[C@H](Cc1ccc(O)cc1)NC(=O)[C@H](CC(N)=O)NC(C)=O)C(=O)NCC(=O)NCC(=O)N[C@@H](CS)C(=O)N[C@@H](CCCNC(=N)N)C(=O)NCC(=O)N[C@@H](CC(=O)O)C(=O)N[C@@H](CCCCN)C(=O)NCC(=O)N1CCC[C@H]1C(=O)N[C@@H](CC(=O)O)C(=O)N[C@@H](CS)C(N)=O)C(=O)O [ACP52CGK] (Ac-NYPQRPGGK([γGlu-Palmitoyl])GGCRGDKGPDC-NH2)
half-life [6]: ~20.2 h
immune response of sera from rabbits injected with ACP52CG and ACP52CK three times (ELISA) [2]: did not induce immune responses
effect on normal cells [7]: no significant effect on normal cells
tumor suppression and metastasis inhibition effects ([3]; 1.39, 2.77, or 5.54 mg/kg, 3-day and 5-day intervals): superior to those of the sorafenib and ACP52C-treated groups
optimal concentration ([3]; mouse, in vivo): 2.77 mg/kg
GI50 values compared with control (ACP52C) [4]: like or more efficient than that of the control
cancer cell-specific cell death [4]: induced cancer cell-specific cell death similarly to the control group
Relative organ weight, Kidney ([8]; female mice): 1.34 ± 0.06%
Relative organ weight, Kidney ([8]; male mice): 1.50 ± 0.08%
Absolute organ weight, Epididymis ([8]; mouse, in vivo): 0.0482 ± 0.0127 g
Absolute organ weight, Ovary ([8]; mouse, in vivo): 0.0059 ± 0.0012 g
Absolute organ weight, Testis ([8]; mouse, in vivo): 0.1693 ± 0.0169 g
Absolute organ weight, Uterus ([8]; mouse, in vivo): 0.0638 ± 0.0227 g
Relative organ weight, Epididymis ([8]; mouse, in vivo): 0.24 ± 0.07%
Relative organ weight, Ovary ([8]; mouse, in vivo): 0.0326 ± 0.0054%
Relative organ weight, Testis ([8]; mouse, in vivo): 0.83 ± 0.08%
Relative organ weight, Uterus ([8]; mouse, in vivo): 0.35 ± 0.12%
tumor inhibition and metastasis inhibition effects ([5]; 1.39, 2.77, 5.54 mg/kg, tail vein 5 times at intervals of 5 days): tumor inhibition and metastasis inhibition effects superior to the sorafenib and ACP52C treatment groups
tumor metastasis inhibition effect (tumor area metastasized to the lung) ([5]; 1.39, 2.77, or 5.54 mg/kg, 5 times at 3-day intervals): superior to ACP52C in the tumor metastasis inhibition effect
tumor suppressive effect ([5]; 1.39, 2.77, or 5.54 mg/kg, tail vein 5 times at 3-day intervals): tumor suppressive effect similar to that of ACP52C
optimal concentration ([5]; comprehensive analysis of 3-day and 5-day interval results): 2.77 mg/kg
sensitivity across PDX generations ([9]; cells derived from the same origin, each generation): not significantly different
resistance ([9]; primarily cultured cells from some PDX tumor tissues): showed resistance

CCCCCCCCCCCCCCCC(=O)N[C@@H](CCC(=O)O)C(=O)NCCCC[C@H](NC(C)=O)C(=O)NCC(=O)NCC(=O)N[C@@H](CC(N)=O)C(=O)N[C@@H](Cc1ccc(O)cc1)C(=O)N1CCC[C@H]1C(=O)N[C@@H](CCC(N)=O)C(=O)N[C@@H](CCCNC(=N)N)C(=O)N1CCC[C@H]1C(=O)N[C@@H](CS)C(=O)N[C@@H](CCCNC(=N)N)C(=O)NCC(=O)N[C@@H](CC(=O)O)C(=O)N[C@@H](CCCCN)C(=O)NCC(=O)N1CCC[C@H]1C(=O)N[C@@H](CC(=O)O)C(=O)N[C@@H](CS)C(N)=O [ACP52CG] (Ac-K([Glu-Palmitoyl])GGNYPQRPCRGDKGPDC-NH2)
immune response of sera from rabbits injected with ACP52CG and ACP52CK three times (ELISA) [2]: did not induce immune responses
anticancer effect [3]: showed tumor regression efficacy, but the anticancer effect was not significant
GI50 values compared with control (ACP52C) [4]: like or more efficient than that of the control
cancer cell-specific cell death [4]: induced cancer cell-specific cell death similarly to the control group
anticancer efficacy [5, 11]: showed similar efficacy to sorafenib, but their efficacy was inferior to that of ACP52C
efficacy [1]: superior to another control, FQI1, but did not show any superior efficacy compared to ACP52C

AC-VDVAD (SEQ ID NO: 11)-CHO (Ac-VDVAD-aldehyde) [caspase2 inhibitor]
protein amount of MDM2p60 [10]: decreased
protein amount of MDM2p90 [10]: increased
